Experiment [1] deals with T1, BRD4 (BDI_K57-E168) (Homo sapiens, UniProt O60885).
T1 construct: BD1: amino acids K57-E168; made in house
Kind of experiment: TR-FRET bromodomain binding assay, first bromodomain of BRD4. Conditions: TR-FRET assay protocol G (compound 0.92 μM-15 pM); 100 nM probe. The essentials:
(§1)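 Ki values derive from IC50s using probe Kd and concentration, with IC50s fitted to normalized TR-FRET ratios (Ex 340/Em 495, 520). Compounds competed against an Alexa647-labelled BET-inhibitor (100 nM BDI, 30 nM BDII) for 8 nM His-tagged bromodomain bound by Eu-anti-His antibody, 1 h, room temperature, pH 6.0.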
A general note: In TR-FRET formats the signal depends on donor and acceptor labels being close together.

Experiment [2] deals with breast cancer cell line MX-1. Kind of experiment: MX-1 cell line proliferation assay. The class given is cell-based. Conditions: MX-1 cells, 3-day proliferation assay, Cell Titer Glo; read-out: Cellular proliferation: EC50. The essentials:
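EC50 comes from sigmoidal fits of Cell Titer Glo luminescence relative to DMSO controls, with assay MSR 2.1. Ten-point 3-fold dilutions (top 3 or 1 μM final) were added to MX-1 breast cancer cells after overnight adhesion. Cells were at 5000/well and proliferation ran 3 days.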

Experiment [3] has as its target T2, BRD4 (BDII_E352-M457) (Homo sapiens, UniProt O60885).
T2 construct: protocol; made in house
Description: TR-FRET bromodomain binding assay, second bromodomain of BRD4. As to conditions: TR-FRET assay protocol G (compound 0.92 μM-15 pM); 30 nM probe. The essentials: as §1

Data on 9 compounds can be found in US10035800B2 (AbbVie Inc., priority 2013, dated 2018).

Usually Ki stands for a measure of affinity in units of concentration, obtained from inhibition or displacement. A lower Ki goes with tighter binding. As to `CNCCCC1c2c[nH]c3c(=O)n(C)cc(c23)-c2cc(CS(C)(=O)=O)ccc2N1c1ccc(F)cc1F` (stereo not drawn) [Example 174, 4-(2,4-difluorophenyl)-10-methyl-3-(3-(methylamino)propyl)-7-((methylsulfonyl)methyl)-3,4-dihydro-1H-1,4,10-triazadibenzo[cd,f]azulen-11(10H)-one], the Ki in experiment [1] amounted to 0.0126 µM; in experiment [3] it was 0.00153 µM. In experiment [2], the EC50 worked out at 0.239 µM.

Turning to `Cc1cccc(C)c1NC(=O)N1Cc2c[nH]c3c(=O)n(C)cc(c23)-c2cc(CS(C)(=O)=O)ccc21` [Example 61, N-(2,6-dimethylphenyl)-10-methyl-7-((methylsulfonyl)methyl)-11-oxo-10,11-dihydro-1H-1,4,10-triazadibenzo[cd,f]azulene-4(3H)-carboxamide], the results for the Ki in experiment [1] and in experiment [3] were 0.0211 µM and 0.00374 µM, respectively. The EC50 in experiment [2] was greater than 1 µM.

As for `COc1cccc(OC)c1C1c2c[nH]c3c(=O)n(C)cc(c23)-c2cc(CS(C)(=O)=O)ccc2N1c1ccc(F)cc1F` (racemic) [Example 221, 4-(2,4-difluorophenyl)-3-(2,6-dimethoxyphenyl)-10-methyl-7-((methylsulfonyl)methyl)-3,4-dihydro-1H-1,4,10-triazadibenzo[cd,f]azulen-11(10H)-one], the Ki in experiment [1] was found to be 0.0316 µM; in experiment [3], 0.0123 µM. Besides, in experiment [2], the EC50 came to 0.033 µM.

For the compound `Cn1cc2c3c(c[nH]c3c1=O)CN(CC1CC1)c1ccccc1-2` [Example 13, 4-(cyclopropylmethyl)-10-methyl-3,4-dihydro-1H-1,4,10-triazadibenzo[cd,f]azulen-11(10H)-one], the Ki is 0.00484 µM in experiment [1] and 0.00768 µM in experiment [3]. The EC50 in experiment [2] turned out to be 0.00726 µM.

`CCOC(=O)C1c2c[nH]c3c(=O)n(C)cc(c23)-c2cc(CS(C)(=O)=O)ccc2N1c1ccc(F)cc1` [Example 85, (S)-ethyl 4-(4-fluorophenyl)-10-methyl-7-((methylsulfonyl)methyl)-11-oxo-3,4,10,11-tetrahydro-1H-1,4,10-triazadibenzo[cd,f]azulene-3-carboxylate]: the values for the Ki in experiment [1] and in experiment [3] were 0.0108 µM and 0.0111 µM, respectively. Besides, the EC50 in experiment [2] came out at 0.0489 µM.

With `Cn1cc2c3c(c[nH]c3c1=O)CN(C(=O)Cc1ccccc1)c1ccc(CS(C)(=O)=O)cc1-2` [Example 108, 10-methyl-7-((methylsulfonyl)methyl)-4-(2-phenylacetyl)-3,4-dihydro-1H-1,4,10-triazadibenzo[cd,f]azulen-11(10H)-one], the values for the Ki in experiment [1] and in experiment [3] were 0.0139 µM and 0.00211 µM, respectively. Moreover, in experiment [2], the EC50 worked out at 0.165 µM.

As to `Cn1cc2c3c(c[nH]c3c1=O)C(CNC(=O)c1ccccc1)N(c1ccc(F)cc1F)c1ccc(CS(C)(=O)=O)cc1-2` (stereo not drawn) [Example 137, N-((4-(2,4-difluorophenyl)-10-methyl-7-((methylsulfonyl)methyl)-11-oxo-3,4,10,11-tetrahydro-1H-1,4,10-triazadibenzo[cd,f]azulen-3-yl)methyl)benzamide], the figures for the Ki in experiment [1] and in experiment [3] were 0.0517 µM and 0.00387 µM, respectively. The EC50 in experiment [2] stood at 0.24 µM.

`CCOC(=O)C1c2c[nH]c3c(=O)n(C)cc(c23)-c2cc(CS(C)(=O)=O)ccc2N1c1ccc(F)cc1` [Example 84, (R)-ethyl 4-(4-fluorophenyl)-10-methyl-7-((methylsulfonyl)methyl)-11-oxo-3,4,10,11-tetrahydro-1H-1,4,10-triazadibenzo[cd,f]azulene-3-carboxylate]: the Ki in experiment [1] came out at 0.00224 µM; in experiment [3], 0.00386 µM. The EC50 in experiment [2] was determined as 0.0177 µM.

In the case of “4-(2-fluoropyridin-4-yl)-10-methyl-7-((methylsulfonyl)methyl)-3,4-dihydro-1H-1,4,10-triazadibenzo[cd,f]azulen-11(10H)-one [Example 254]”, the Ki is 0.00112 µM in experiment [1] and 0.00071 µM in experiment [3]. For the same compound, in experiment [2], the EC50 came out at 0.0039 µM.
